# Data published in patent publication US20170319562A1, “Compositions and Methods for Extended Therapy with Aminopyridines” (Acorda Therapeutics, Inc., priority 2009, published 2017).
# Where two headings read alike, the source gives them in different places.
# Experiments:
# [1] = system: chronically injured spinal cord of guinea pigs; settings: cited from earlier work
# [2] = cited from earlier work; for bioavailability: AUC(0-∞) i.v. vs p.o. 2 mg/kg
# [3] = two formulations of IR tablets; cited from earlier work
# [4] = system: normal adult myelinated axons; settings: cited from earlier work
# [5] = human, in vivo, po, 10 mg
# [6] = system: patients with multiple sclerosis; test: MS-F202EXT open-label extension study; format: in vivo, human; settings: for patients classified as Extension Timed Walk Responders: cut-off Jul. 31, 2008
# Experimental: Data were presented by study pair (parent and extension).
# In the MS-F202EXT study, which started recruiting patients several months after the completion of the parent study, patients were required to undergo a screening visit prior to dispensing of open-label 4-aminopyridine-SR. The study began with the potential to titrate the dose upward to a maximum of 20 mg b.i.d. with titration visits at weekly intervals. A number of protocol amendments decreased the maximum dose to 15 and then to 10 mg b.i.d. and changed the planned visit intervals, but in the current amended protocol, both the dose (10 mg b.i.d.) and the interval between visits (26 weeks) has been made consistent with MS-F203EXT.
# This Example considers efficacy data collected from the three ongoing, open label extension studies (MS-F202EXT, MS-F203EXT, MS-F204EXT). The primary focus was the Timed 25-Foot Walk, assessed in a manner consistent with its evaluation in the parent double-blind studies. This included the determination of response to treatment using a criterion equivalent to the Timed Walk Response criterion used in the parent studies. […] The clinical meaningfulness of this criterion was evaluated in terms of the Subject and Clinician Global Impression scores recorded during the extension studies.
# In the extension studies, a “Timed Walk Extension Responder” was defined as a patient who achieved a faster walking speed on the T25FW for the majority of on-drug treatment visits during the first year of the study (Visits 1-4 for MS-F203EXT and MS-F204EXT) than the maximum walking speed previously measured for the patient during any off-drug visits in either the parent study or in the extension study.
smiles,measurement,setting,value
Nc1ccncc1 [4-aminopyridine],most effective concentration,[1],about 10 μM
same,bioavailability,[2]; female rats,~55%
same,bioavailability,[2]; male rats,approximately 66.5%
same,peak plasma concentrations lower in females than in males,[2]; oral administration,38%
same,absolute bioavailability,[3],95%
same,concentrations causing gradual depolarization of the axon resting potential,[4],above 1 mM
same,concentrations at which the action potential shows little or no sensitivity,[4]; normal adult myelinated axons,below 100 μM
same,time of Cmax after dose administration,[5],approximately 1.1 hours
same,patients classified as Extension Timed Walk Responders,[6]; all patients,15.7%
same,Extension Timed Walk Response rate within year,"[6]; double-blind Non-Responders, year 1",11.1%
same,Extension Timed Walk Response rate within year,"[6]; double-blind Non-Responders, year 2",5.2%
same,Extension Timed Walk Response rate within year,"[6]; double-blind Non-Responders, year 3",6.1%
same,Extension Timed Walk Response rate within year,"[6]; double-blind Responders, year 1",25.6%
same,Extension Timed Walk Response rate within year,"[6]; double-blind Responders, year 2",23.1%
same,Extension Timed Walk Response rate within year,"[6]; double-blind Responders, year 3",22.2%
same,patients classified as Extension Timed Walk Responders,[6]; parent-study treated Timed Walk Non-Responders,9.5%
same,patients classified as Extension Timed Walk Responders,[6]; parent-study treated Timed Walk Responders,25.6%
same,Extension Timed Walk Response rate within year,"[6]; placebo treated in parent study, year 1",17.9%
same,Extension Timed Walk Response rate within year,"[6]; placebo treated in parent study, year 2",4.6%
same,Extension Timed Walk Response rate within year,"[6]; placebo treated in parent study, year 3",5.3%
same,patients classified as Extension Timed Walk Responders,[6]; placebo-treated in parent study,14.3%
